Test results as given in paper PMC8020795 (Proceedings of the National Academy of Sciences of the …, 2021).

Columns and labels:
orthotopic HCA-1 tumors = experiment: Orthotopic HCA-1 HCC model; type: in vivo, C3H mice; conditions: treatment alone; for Effect on tumor growth: 15 mg/kg/d SC minipump 14 d
Method: (§1) In vivo hepatocellular carcinoma treatment studies […]
(§2) mouse PD-1 (200 µg/mouse; BioXcell, BE0146). The therapeutic efficacy and the changes in immune cells were analyzed after two weeks of treatment. The tumor volume was calculated with the following formula: volume = width × length × height/2. […]
Hematoxylin and Eosin staining
Lung tissue was cut into small pieces and fixed in 4% PFA (in PBS) overnight before being embedded in paraffin wax. The sections were then stained with hematoxylin and eosin (H&E) and observed with an inverted microscope (IX83, Olympus, Japan).
HCA-1 tumor-bearing mice were anesthetized, perfused via intracardiac injection with PBS and then sacrificed. Tumor tissues were collected and harvested in enzyme-containing DMEM cell culture medium (1.5 mg/mL of collagenase type 1A and hyaluronidase; Sigma).
The tissues were cut and ground into smaller pieces and then digested for 1 h at 37 °C to form suspensions of single tumor cells. The suspensions were filtered through a 70-µm cell strainer (Corning, Manassas, VA), and the cells were then incubated with rat anti-mouse CD16/CD32 mAbs to block Fc receptors. After washing 3 times and resuspending in cold flow buffer (1% BSA, 0.1% NaN3 in PBS), the single-cell suspensions were incubated with monoclonal anti-mouse F4/80-PE (eBiosciences, San Diego, CA), 7-AAD, CD3e-APC, CD8a-PE-Cy7, CD45-FITC, CD4-PE (BD Biosciences, East Rutherford, NJ), CD86-APC-

orthotopic JHH-7 tumors = experiment: Orthotopic JHH-7 HCC model; type: in vivo, nude mice; conditions: treatment alone, 15 mg/kg/d SC minipump 14 d
Method: as §1, §2

[1] = Pharmacokinetics after SC administration; conditions: 6 mg/kg
Method: Pharmacokinetics and toxicological studies
Male C57BL/6 mice, each weighing 23.4–25.4 g, were quarantined for 1 week before drug treatment. Compounds dissolved in 100% saline were individually given to mice (n = 3) subcutaneously (6 mg/kg; nonfasted mice). Blood samples were collected via cardiac puncture at defined time points (0 (immediately before dosing), 0.03, 0.08, 0.25, 0.5, 1, 2, and 4 h after dosing) and then stored at −80 °C. The volume of the dosing solution given was 100 µL for each mouse. The plasma samples were analyzed by liquid chromatography– tandem mass spectrometry (LC–MS/MS), and the data were calculated by a standard noncompartmental method using the Kinetica software program (InnaPhase). […]

[2] = Metabolic stability in liver microsomes; type: in vitro ADME; conditions: mouse, rat, dog, and human
Description: Figure S4. The metabolic stabilities of BPRCX807 in liver microsomes. BPRCX807 is […]

hERG (human K+ channel) = molecular target: T1, hERG (human K+ channel) (Homo sapiens, UniProt Q12809); experiment: hERG patch-clamp assay (hERG-CHO, automated patch-clamp); type: cell-based
T1 construct: host or cells: CHO (hERG-CHO)
Description: page 16: Table: List of genes examined by real-time PCR and the primer sequences used. Genes Forward primers Reverse primers Slug [NT] Fn1 [NT] Cdh2 […] Foxc2 [NT] Zeb1 [NT] Zeb2 [NT] Twist1 [NT] Cdh1 [NT] Mta3 [NT] Cldn3 [NT] Cldn5 [NT] β-actin […] [NT] Off-target standard assays Methods employed in this study have been adapted from the scientific literature to maximize reliability and reproducibility. Reference standards were run as an integral part of each assay to ensure the validity of the results obtained. Radioligand binding Assays were performed under conditions described in the accompanying "Methods" section of this report by Eurofins Panlabs, Inc (Taipei, Taiwan, ROC). hERG patch-clamp assay BPRCX807 were tested in the hERG (hERG-CHO, automated patch-clamp) assay and determined at Eurofins Panlabs (Missouri, USA). The experiment was accepted in accordance with Eurofins validation Standard Operating Procedure. Selectivity Screening of various chemokine receptors The results were performed by Eurofins DiscoverX (Fremont, California, USA). The S15

[3] = SC, mice, n = 3
CXCR4 = CXCR4 (Homo sapiens, UniProt P61073); parameters: expressed in transfected cells; host or cells: HEK293T; conditions: screening hit; read-out: IC50 (binding affinity toward CXCR4 receptors); cited from earlier work
HCA-1 cells = experiment: Western blot of phospho-ERK and phospho-AKT after CXCL12 stimulation; type: cell-based, murine
Method: (§3) Western blotting was conducted by following standard procedures. HCA-1 or JHH-7 cells (10^5 cells per well) were seeded in 12-well plates (Costar, IL), incubated for 12 h and […]
(§4) containing (100 ng/mL) serum-free medium. After 24 h, the cells were lysed in RIPA buffer on ice for 30 min, and samples were collected and loaded with 4× Laemmli Sample buffer (Bio-Rad, Hercules, CA). The samples were separated on a 10% SDS-PAGE gels and transferred to PVDF membranes. After blocking with skim milk for 1 h, the membranes were incubated at 4°C overnight with primary antibodies against p -AKT, AKT, p-ERK, ERK (Cell Signaling, Danvers, MA) or β-actin (Sigma-Aldrich, St. Louis, MO) before incubation with HRP-conjugated secondary antibodies (Antibodies Inc., Davis, CA) for 1 h. […]
(§5) Total RNA was extracted from HCA-1 cells using the RNeasy Mini Kit (Qiagen, CA, USA). cDNAs were synthesized using the High-Capicity cDNA Reverse Transcription Kit […]
(§6) Biosystems, CA, USA) on a QPCR System. The comparative threshold cycle method was used to calculate fold change in gene expression, which was normalized to β-actin as a […]

JHH-7 cells = experiment: as above; type: cell-based, human
Method: as §3, §4, §5, §6

[4] = male, C57BL/6, mouse, in vivo, sc

T1 sequence (Q12809 whole entry): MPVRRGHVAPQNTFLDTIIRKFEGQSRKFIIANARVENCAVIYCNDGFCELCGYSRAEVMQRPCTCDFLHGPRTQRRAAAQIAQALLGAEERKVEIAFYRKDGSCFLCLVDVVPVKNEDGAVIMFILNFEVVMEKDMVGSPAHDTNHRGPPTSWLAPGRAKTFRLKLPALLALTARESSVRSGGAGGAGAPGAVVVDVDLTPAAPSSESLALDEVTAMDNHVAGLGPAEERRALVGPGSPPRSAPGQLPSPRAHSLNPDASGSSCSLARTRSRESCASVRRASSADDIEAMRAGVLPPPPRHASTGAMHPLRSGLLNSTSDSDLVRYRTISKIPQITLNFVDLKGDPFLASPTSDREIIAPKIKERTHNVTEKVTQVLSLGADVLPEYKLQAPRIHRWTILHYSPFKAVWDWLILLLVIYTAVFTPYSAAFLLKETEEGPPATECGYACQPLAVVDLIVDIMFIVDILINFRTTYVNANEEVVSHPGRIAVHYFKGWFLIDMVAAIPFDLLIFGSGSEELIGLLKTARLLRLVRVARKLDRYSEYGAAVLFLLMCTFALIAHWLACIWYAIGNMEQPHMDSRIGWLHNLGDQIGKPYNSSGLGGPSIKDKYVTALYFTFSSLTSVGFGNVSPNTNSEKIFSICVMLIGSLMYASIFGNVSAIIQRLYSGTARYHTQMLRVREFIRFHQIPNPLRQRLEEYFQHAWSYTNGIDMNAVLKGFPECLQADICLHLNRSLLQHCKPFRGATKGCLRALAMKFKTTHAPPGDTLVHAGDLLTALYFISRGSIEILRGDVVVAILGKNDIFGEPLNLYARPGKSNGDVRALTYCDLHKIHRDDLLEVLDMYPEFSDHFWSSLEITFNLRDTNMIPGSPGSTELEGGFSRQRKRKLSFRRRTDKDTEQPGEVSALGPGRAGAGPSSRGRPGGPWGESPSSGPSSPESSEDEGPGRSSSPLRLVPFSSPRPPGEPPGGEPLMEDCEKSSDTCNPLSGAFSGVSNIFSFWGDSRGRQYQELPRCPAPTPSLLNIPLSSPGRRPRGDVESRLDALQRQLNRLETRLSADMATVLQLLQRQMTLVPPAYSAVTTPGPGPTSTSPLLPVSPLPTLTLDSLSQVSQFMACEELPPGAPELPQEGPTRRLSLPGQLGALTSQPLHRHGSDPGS
Chain of CXCR4 (P61073 whole entry): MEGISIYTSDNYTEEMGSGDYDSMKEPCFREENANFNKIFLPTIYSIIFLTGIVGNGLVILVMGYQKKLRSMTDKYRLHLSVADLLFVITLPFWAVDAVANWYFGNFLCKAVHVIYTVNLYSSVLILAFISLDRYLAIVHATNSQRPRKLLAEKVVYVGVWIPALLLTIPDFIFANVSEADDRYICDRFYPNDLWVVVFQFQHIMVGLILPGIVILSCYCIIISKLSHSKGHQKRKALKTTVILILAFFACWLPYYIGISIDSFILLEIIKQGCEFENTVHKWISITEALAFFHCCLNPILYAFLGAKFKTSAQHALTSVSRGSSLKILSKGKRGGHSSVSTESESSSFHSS

Cc1cc(NC2CCN(C(=O)CCNCC(=O)O)CC2)nc(NCc2cn(CCCNCCCNC3CCCCC3)nn2)n1 [BPRCX714, reference compound]
Effect on tumor growth (orthotopic HCA-1 tumors): no significant effect on tumor growth
Effect on tumor growth (orthotopic JHH-7 tumors): no significant effect on tumor growth

c1cc(CN2CCCNCCNCCCNCC2)ccc1CN1CCCNCCNCCCNCC1 [AMD3100, reference compound]
AUC0–4 h ([1]; SC, mice, n = 3): 7,152 ± 135 ng/mL·h
Cmax [1, 4]: 6200 ng/mL
half-life [1, 4]: 1 h
Metabolic stability in liver microsomes [2]: Stable
IC50 (hERG (human K+ channel)): > 100000 nM
Effect on tumor growth (orthotopic HCA-1 tumors): no significant effect on tumor growth
Lung metastasis (number of lung nodules) (orthotopic HCA-1 tumors; day 24): reduced
Effect on tumor growth (orthotopic JHH-7 tumors): no significant effect on tumor growth
Maximum tolerated dose [3]: 15 mg/kg

CNC(=O)c1cc(Oc2ccc(NC(=O)Nc3ccc(Cl)c(C(F)(F)F)c3)cc2)ccn1 [sorafenib, reference compound]
F4/80+ TAMs infiltration into tumor (flow cytometry) (orthotopic HCA-1 tumors): substantially increased
Intratumoral mean vessel density (MVD, CD31+ staining) (orthotopic HCA-1 tumors; day 24): significantly decrease intratumoral MVD
Lung metastasis (number of lung nodules) (orthotopic HCA-1 tumors; day 24): barely reduced

CCN(CC)CCCC(C)Nc1cc(/C=C/c2ccc([N+](=O)[O-])cc2)nc2cc(OC)ccc12 (centres unmarked) [CSV18742]
IC50 (CXCR4): 2130 ± 110 nM

NCCCCN(Cc1nc2ccccc2[nH]1)[C@H]1CCCc2cccnc21 [AMD11070, reference compound]
CXCL12-mediated cell signaling (phospho-ERK, phospho-AKT) (HCA-1 cells): moderately inhibited
CXCL12-mediated cell signaling (phospho-ERK, phospho-AKT) (JHH-7 cells): moderately inhibited
